In patent publication US20220267736A1, “PLURIPOTENT STEM CELL AGGREGATION SUPPRESSOR” (KANEKA CORPORATION, priority 2017, published 2022):

System: human iPS cells (TkDN4-M)
Test: Cell aggregate size distribution (widest portion) from micrographs during suspension culture
Type: cell-based
Conditions: cytochalasin D 20 nM, jasplakinolide 20 nM, demecolcine 10 ng/mL; for percentage of cell aggregates whose size (diameter) was 40 μm or more and 300 μm or less, relative to the total cell aggregate count / percentage of cell aggregates whose size (diameter) was 60 μm or more and 300 μm or less / percentage of cell aggregates whose size (diameter) was 80 μm or more and 300 μm or less / percentage of cell aggregates whose size (diameter) was 100 μm or more and 300 μm or less / Number of cell aggregates by size / Percentage of cell aggregates by size: Day 1, DMSO 1%; for average ± standard deviation of cell aggregate sizes (diameters): Day 1 of culture, DMSO 1% (v/v), Y-27632 10 μM
Description: Cell suspensions were prepared in the same manner as in Example 2, and separately, the concentrations of the suppressors of cell aggregation were adjusted so that the final concentration of demecolcine (same as above) was 10 mg/mL (26.9 mM), the final concentration of cytochalasin D (same as above) was 0.51 mg/mL (1 mM), the concentration of DMSO (the same as above) was the stock concentration, or the final concentration of jasplakinolide (Cayman, 11705) was 0.14 mg/mL (0.2 mM). Then the concentration-adjusted cell aggregation suppressors were added to the cell suspensions so that the final concentration of demecolcine was 10 ng/mL, the final concentration of cytochalasin D was 20 nM, the final concentration of DMSO was 1% (v/v), or the final concentration of jasplakinolide was 20 nM, and the cells were seeded at a rate of 4 mL/well in a 6-well plate for suspension culture (Sumitomo Bakelite Co., Ltd., Japan). The cell-seeded plate was subjected to a swirling culture on a rotary shaker (OPTIMA, Inc., Japan) at a speed of 90 rpm along the horizontal plane to draw a circle with a swirling width (diameter) of 25 mm and cells were subjected to suspension culture under the environment of 5% CO2 and 37° C. After the next day of culture (Day 1 of culture), the culture medium was exchanged daily with a fresh culture medium (Essential 8™ culture medium containing BSA (Wako Pure Chemical Industries, Ltd.) at a final concentration of 5 mg/mL), and the culture was continued until 5 days after the start of culture. Images were obtained by phase contrast microscopy every day during culture. While 182 to 252 cell aggregates in images obtained on Day 1 of culture being observed and compared using a micrograph scale, the width (referred to as “φ”) of the widest portion of each cell aggregate was measured, distribution thereof was examined, and average±standard deviation was calculated. The concentration of glucose contained in the culture supernatant collected at the time of culture medium exchange was measured with biosensor BF-5iD (Prince Measuring Equipment Co., Ltd.) to calculate glucose consumption.

Row | Compound | percentage of cell aggregates whose size (diameter) was 40 μm or more and 300 μm or less, relative to the total cell aggregate count | percentage of cell aggregates whose size (diameter) was 60 μm or more and 300 μm or less | percentage of cell aggregates whose size (diameter) was 80 μm or more and 300 μm or less | percentage of cell aggregates whose size (diameter) was 100 μm or more and 300 μm or less | Number of cell aggregates by size (size range 40− μm) | Percentage of cell aggregates by size (size range 40− μm) | Number of cell aggregates by size (size range 60− μm) | Percentage of cell aggregates by size (size range 60− μm) | Number of cell aggregates by size (size range 80− μm) | Percentage of cell aggregates by size (size range 80− μm) | Number of cell aggregates by size (size range 100− μm) | Percentage of cell aggregates by size (size range 100− μm) | Number of cell aggregates by size (size range 120− μm) | Percentage of cell aggregates by size (size range 120− μm) | Number of cell aggregates by size (size range 140− μm) | Percentage of cell aggregates by size (size range 140− μm) | Number of cell aggregates by size (size range 160− μm) | Percentage of cell aggregates by size (size range 160− μm) | Number of cell aggregates by size (size range 180− μm) | Percentage of cell aggregates by size (size range 180− μm) | other results
1 | C[S+](C)[O-] [DMSO, dimethylsulfoxide] | 100% | 100% | 98.5% | 96.0% | 0 | 0.0% | 3 | 1.5% | 5 | 2.5% | 2 | 1.0% | 24 | 12.1% | 56 | 28.1% | 56 | 28.1% | 33 | 16.6% | Number of cell aggregates by size (size range 200− μm): 12; Percentage of cell aggregates by size (size range 200− μm): 6.0%; Number of cell aggregates by size (size range 220− μm): 5; Percentage of cell aggregates by size (size range 220− μm): 2.5%; Number of cell aggregates by size (size range 240− μm): 1; Percentage of cell aggregates by size (size range 240− μm): 0.5%; Number of cell aggregates by size (size range 260− μm): 1; Percentage of cell aggregates by size (size range 260− μm): 0.5%; Number of cell aggregates by size (size range 280− μm): 1; Percentage of cell aggregates by size (size range 280− μm): 0.5%; Number of cell aggregates by size (size range 300− μm): 0; Percentage of cell aggregates by size (size range 300− μm): 0.0%; average ± standard deviation of cell aggregate sizes (diameters): 164.8±31.8 μm
2 | C=C1[C@@H](C)[C@H]2[C@H](Cc3ccccc3)NC(=O)[C@]23[C@H](OC(C)=O)/C=C/[C@@](C)(O)C(=O)[C@@H](C)C/C=C/[C@H]3[C@@H]1O [cytochalasin D] | 100% | 96% | 88.1% | 80.6% | 10 | 4.0% | 20 | 7.9% | 19 | 7.5% | 26 | 10.3% | 60 | 23.8% | 66 | 26.2% | 40 | 15.9% | 10 | 4.0% | Number of cell aggregates by size (size range 200− μm): 0; Percentage of cell aggregates by size (size range 200− μm): 0.0%; Number of cell aggregates by size (size range 220− μm): 1; Percentage of cell aggregates by size (size range 220− μm): 0.4%; Number of cell aggregates by size (size range 240− μm): 0; Percentage of cell aggregates by size (size range 240− μm): 0.0%; Number of cell aggregates by size (size range 260− μm): 0; Percentage of cell aggregates by size (size range 260− μm): 0.0%; Number of cell aggregates by size (size range 280− μm): 0; Percentage of cell aggregates by size (size range 280− μm): 0.0%; Number of cell aggregates by size (size range 300− μm): 0; Percentage of cell aggregates by size (size range 300− μm): 0.0%; average ± standard deviation of cell aggregate sizes (diameters): 132.5±34.8 μm
3 | CN[C@H]1CCc2cc(OC)c(OC)c(OC)c2-c2ccc(OC)c(=O)cc21 [demecolcine] | 100% | 97.3% | 93.5% | 92.4% | 5 | 2.7% | 7 | 3.8% | 2 | 1.1% | 0 | 0.0% | 2 | 1.1% | 16 | 8.8% | 37 | 20.3% | 45 | 24.7% | Number of cell aggregates by size (size range 200− μm): 38; Percentage of cell aggregates by size (size range 200− μm): 20.9%; Number of cell aggregates by size (size range 220− μm): 19; Percentage of cell aggregates by size (size range 220− μm): 10.4%; Number of cell aggregates by size (size range 240− μm): 8; Percentage of cell aggregates by size (size range 240− μm): 4.4%; Number of cell aggregates by size (size range 260− μm): 2; Percentage of cell aggregates by size (size range 260− μm): 1.1%; Number of cell aggregates by size (size range 280− μm): 0; Percentage of cell aggregates by size (size range 280− μm): 0.0%; Number of cell aggregates by size (size range 300− μm): 1; Percentage of cell aggregates by size (size range 300− μm): 0.5%; average ± standard deviation of cell aggregate sizes (diameters): 184.9±44.9 μm
4 | C/C1=C\[C@H](C)C[C@H](C)OC(=O)C[C@H](c2ccc(O)cc2)NC(=O)[C@@H](Cc2c(Br)[nH]c3ccccc23)N(C)C(=O)[C@H](C)NC(=O)[C@@H](C)C1 [jasplakinolide] | 100% | 98.1% | 96.2% | 95.7% | 4 | 1.9% | 4 | 1.9% | 1 | 0.5% | 8 | 3.9% | 23 | 11.2% | 52 | 25.2% | 66 | 32.0% | 30 | 14.6% | Number of cell aggregates by size (size range 200− μm): 9; Percentage of cell aggregates by size (size range 200− μm): 4.4%; Number of cell aggregates by size (size range 220− μm): 4; Percentage of cell aggregates by size (size range 220− μm): 1.9%; Number of cell aggregates by size (size range 240− μm): 1; Percentage of cell aggregates by size (size range 240− μm): 0.5%; Number of cell aggregates by size (size range 260− μm): 1; Percentage of cell aggregates by size (size range 260− μm): 0.5%; Number of cell aggregates by size (size range 280− μm): 2; Percentage of cell aggregates by size (size range 280− μm): 1.0%; Number of cell aggregates by size (size range 300− μm): 1; Percentage of cell aggregates by size (size range 300− μm): 0.5%; average ± standard deviation of cell aggregate sizes (diameters): 162.7±37.2 μm
